Where two headings read alike, the source gives them in different places.
Legend:
MRC-5 cells [1] = test: MTT cytotoxicity assay, MRC-5 normal lung fibroblasts
Procedure: (§3) Human urinary grade II carcinoma cell line (5637) and human urinary squamous cell carcinoma (SCaBER) were purchased from ATCC (Manassas, VA, USA). The MRC-5 cell line (normal human lung fibroblasts) was purchased from the European Collection of Authenticated Cell Cultures (ECACC) distributed by Sigma-Aldrich. The 5637 cells were grown in RPMI, SCaBER cells were cultured in EMEM, and MRC-5 in DMEM. All media were supplemented with 10% (v/v) FBS, 2 mM L-glutamine, 100 U/mL penicillin, and 10 mg/mL streptomycin in a humidified atmosphere of 5% CO2 at 37 °C.
(§4) 5637 and SCaBER cells were seeded at 15 × 10^3 cells/well, while MRC-5 was at a density of 20 × 10^3 cells/well and incubated overnight. In the case of the hypoxia experiments, cells were transferred to a hypoxia chamber and incubated for 24 h. […] The cytotoxic activity of tested compounds was measured after 24 h and 48 h using the MTT assay. After incubation lasting 24 h and 48 h, the cells were washed twice with PBS, and 170 µL of MTT (final concentration of 0.59 mg/mL in cell culture medium) was added to each well. Cells were incubated for 1.5 h under standard cell culture conditions. Then, DMSO was added to dissolve the formazan crystals. The absorbance was measured at a wavelength of 570 nm with a plate reader (Biotek Instruments, Elx-800, Winooski, VT, USA). Cell viability was calculated as a percentage of the control. All experiments were repeated at least two times (two independent experiments performed in hexaplicate). The IC50 values were determined using GraphPad 8.0 software (GraphPad Software, Inc., La Jolla, CA, USA).

[2] = as above; settings: human, MRC-5 normal lung fibroblasts
Procedure: as §3, §4

SCaBER cells [3] = test: MTT cytotoxicity assay, SCaBER bladder cancer cells; assay type: cell-based, human; settings: normoxia
5637 cells [4] = test: Proteome Profiler Human Cell Stress Array; assay type: cell-based; settings: 5637, hypoxic conditions, 4 µM, 18 h, compared to control cells
Procedure: The 5637 cells were seeded in a Petri dish (Ø 35 mm) at a density of 0.4 × 10^6 cells/dish and incubated overnight. Cells were treated with compound 5 at a concentration of 4 µM (hypoxia) and 8 µM (normoxia) for 18 h. […] After incubation, cells were lysed in a lysis buffer containing pepstatin A, leupeptin, and aprotinin (each at a concentration of 10 µg/mL). Total protein was determined using a Pierce BCA protein assay Kit and stored at −80 °C until future use. A total of 300 µg of protein was then incubated with a human Proteome Profiler Human Cell Stress Array (Bio-Techne, Minneapolis, MN, USA) according to the manufacturer’s instructions. The membranes were visualized using the I-Bright Imaging System (Thermofisher Scientific, Waltham, MA, USA). The spot densitometric analysis was performed using Image Studio Lite (version 5.2) software (LI-COR Biosciences, Lincoln, NE, USA).

5637 cells [5] = test: MTT cytotoxicity assay, 5637 bladder cancer cells; assay type: cell-based, human
Procedure: (§1) For the hypoxia experiments, cells were cultured at 1% O2 (5% CO2/94% N2; 37 °C) using a hypoxia station (Whitley H35 hypoxystation; Don Whitley, Bingley, UK). All media used in these experiments were incubated under hypoxic conditions before being added to the cells.
(§2) Then, DMSO was added to dissolve the formazan crystals.

5637 cells [6] = test: Cell cycle distribution, propidium iodide flow cytometry; assay type: cell-based, human; settings: for G2/M cell population: 5637, 6 µM, 24 h
Procedure: The 5637 cells (0.4 × 10^6 cells/well) were seeded in 6-well plates and incubated overnight under standard cell culture conditions or in a hypoxia workstation. Then, the tested compound was added at a concentration of 4 µM, 5 µM, and 6 µM (for hypoxic conditions), and 6 µM, 8 µM, and 10 µM (for normoxic conditions), and incubated for 24 h. […] After incubation, cells were washed twice with PBS, trypsinized, and washed again with PBS. Cells were fixed with 70% ethanol at 4 °C. After fixation, the cells were washed twice with PBS and treated with RNAse (100 µg/mL) and PI (50 µg/mL) for 30 min at 37 °C in the dark. The samples were analyzed using BD FACSLyric™ (Becton Dickinson, Franklin Lakes, NJ, USA). Finally, cell cycle distribution was analyzed using flow cytometry. The percentages of cells in the G1, S, and G2/M phases were calculated using FlowJo software version 10.8.1 (Becton Dickinson, Ashland, OR, USA).

SCaBER cells [7] = test: MTT cytotoxicity assay, SCaBER bladder cancer cells; assay type: cell-based, human; settings: hypoxia (1% oxygen)
Procedure: as §1, §2

[8] = tested on: human peripheral blood mononuclear cell (PBMC); parameters: method as in ref 38 (Deters et al.); settings: ref 38 (Deters et al.); cited from earlier work
T24 cell line = tested on: T24 cell line; parameters: method as in ref 53 (Park et al.); settings: T24 cells, 12.5 µM; ref 53 (Park et al.); cited from earlier work
[9] = parameters: method as in ref 41 (Wang et al.); settings: ref 41 (Wang et al.), cited from earlier work
MRC-5 cells [10] = settings: 10 µM
Procedure: as §3, §4

[11] = Homo sapiens, 24 h, 24 h incubation
[12] = Homo sapiens, 48 h, 48 h incubation
[13] = Homo sapiens, 24 h, 5637, hypoxia (1% oxygen), 24 h incubation, MTT, read-out: IC50
[14] = Homo sapiens, 24 h, 5637, normoxia, 24 h incubation, MTT, read-out: IC50
[15] = Homo sapiens, 48 h, 5637, hypoxia (1% oxygen), 48 h incubation, MTT, read-out: IC50
[16] = Homo sapiens, 48 h, 5637, normoxia, 48 h incubation, MTT, read-out: IC50
[17] = 5637, 24 h, hypoxic conditions, vs control
[18] = MRC-5, normoxia, 24 h incubation, MTT
[19] = MRC-5, normoxia, 48 h incubation, MTT
[20] = 5637, hypoxia (1% oxygen), 24 h incubation, MTT, read-out: IC50
[21] = 5637, hypoxia (1% oxygen), 48 h incubation, MTT, read-out: IC50
[22] = 5637, normoxia, 24 h incubation, MTT, read-out: IC50
[23] = 5637, normoxia, 48 h incubation, MTT, read-out: IC50

Row | Compound | IC50 (MRC-5 cells [1]; [18]) [µM] | IC50 (MRC-5 cells [1]; [19]) [µM] | IC50 (SCaBER cells [3]; 24 h incubation) [µM] | IC50 (SCaBER cells [3]; 48 h incubation) [µM] | IC50 (5637 cells [5]; [20]) [µM] | IC50 (5637 cells [5]; [21]) [µM] | IC50 (5637 cells [5]; [22]) [µM] | IC50 (5637 cells [5]; [23]) [µM] | IC50 (SCaBER cells [7]; 24 h incubation) [µM] | IC50 (SCaBER cells [7]; 48 h incubation) [µM] | also measured
1 | COCCOCCOCCOc1ccc(/C=C/C(=O)/C=C(O)/C=C/c2ccc(OCCOCCOCCOC)c(OC)c2)cc1OC [Compound 5, (1E,4Z,6E)-5-hydroxy-1,7-bis(3-methoxy-4-{2-[2-(2-methoxyethoxy)ethoxy]ethoxy}phenyl)-hepta-1,4,6-trien-3-one] | – | – | – | – | – | – | – | – | – | – | IC50 (MRC-5 cells [1]; Homo sapiens, MRC5, 24 h): > 10 µM; IC50 (MRC-5 cells [1]; Homo sapiens, MRC5, 48 h): > 10 µM; viability at 10 µM [2]: ~100%; IC50 (SCaBER cells [3]; [11]): 8.53 ± 0.16 µM; IC50 (SCaBER cells [3]; [12]): 7.97 ± 0.4 µM; expression of HIF-1α, HIF-2α, ADAMTS-1, phospho-JNK, p21, and phospho-HSP27 (5637 cells [4]): increased; IC50 (5637 cells [5]; [13]): 6.43 ± 0.26 µM; IC50 (5637 cells [5]; [14]): 8.4 ± 0.21 µM; IC50 (5637 cells [5]; Homo sapiens, 24 h, 5637, panel A (normoxia, 5-10 µM), 24 h, read-out: IC50 (narrow concentration range)): 7.89 ± 0.47 µM; IC50 (5637 cells [5]; Homo sapiens, 24 h, 5637, panel B (hypoxia 1% oxygen, 3-8 µM), 24 h, read-out: IC50 (narrow concentration range)): 5.29 ± 0.02 µM; IC50 (5637 cells [5]; [15]): 5.02 ± 1.06 µM; IC50 (5637 cells [5]; [16]): 7.91 ± 0.46 µM; IC50 (5637 cells [5]; Homo sapiens, 48 h, 5637, panel A (normoxia, 5-10 µM), 48 h, read-out: IC50 (narrow concentration range)): 7.82 ± 1 µM; IC50 (5637 cells [5]; Homo sapiens, 48 h, 5637, panel B (hypoxia 1% oxygen, 3-8 µM), 48 h, read-out: IC50 (narrow concentration range)): 5.29 ± 0.16 µM; G2/M cell population (5637 cells [6]; hypoxia): 38%; G2/M cell population (5637 cells [6]; normoxia): 24%; number of cells in the G0/G1 phase (5637 cells [6]; [17]): significantly decreased; number of cells in the S phase (5637 cells [6]; [17]): slightly increased; IC50 (SCaBER cells [7]; [11]): 7.27 ± 0.2 µM; IC50 (SCaBER cells [7]; [12]): 7.58 ± 0.91 µM
2 | (1E,3Z,6E)-1,7-bis(4-methoxy-3-{2-[2-(2-methoxyethoxy)ethoxy]ethoxy}phenyl)-5-oxohepta-1,3,6-trien-3-yl difluoroborinate [Compound 6] | > 10 | 9.34 ± 0.76 | 4.11 ± 1.4 | 4.35 ± 1.97 | 2.37 ± 0.19 | 2.66 ± 0.07 | 2.6 ± 0.99 | 2.63 ± 0.77 | 5.85 ± 1.98 | 7.28 ± 1.81 | –
3 | (1E,3Z,6E)-1,7-bis(3-methoxy-4-hydroxyphenyl)-5-oxohepta-1,3,6-trien-3-yl difluoroborinate [Compound 10] | > 10 | 7.84 ± 0.15 | 2.59 ± 0.16 | 2.71 ± 0.34 | 1.96 ± 0.47 | 2.12 ± 0.33 | 2.25 ± 0.08 | 2.17 ± 0.24 | 2.35 ± 0.22 | 2.6 ± 0.03 | –
4 | COc1ccc(/C=C/C(=O)/C=C(O)/C=C/c2ccc(OC)c(O)c2)cc1O [Isocurcumin (13), (1E,4Z,6E)-5-hydroxy-1,7-bis(4-methoxy-3-hydroxyphenyl)-hepta-1,4,6-trien-3-one] | – | – | – | – | – | – | – | – | – | – | IC50 [8]: 2.8 µM; IC50 (MRC-5 cells [1]; Homo sapiens, MRC5, 24 h): > 20 µM; IC50 (MRC-5 cells [1]; Homo sapiens, MRC5, 48 h): > 20 µM; IC50 (SCaBER cells [3]; [11]): 14.7 ± 0.88 µM; IC50 (SCaBER cells [3]; [12]): 14.3 ± 0.41 µM; IC50 (5637 cells [5]; [13]): 13.1 ± 2.89 µM; IC50 (5637 cells [5]; [14]): 10.8 ± 3.46 µM; IC50 (5637 cells [5]; [15]): 10.1 ± 3.12 µM; IC50 (5637 cells [5]; [16]): 6.71 ± 1.7 µM; IC50 (SCaBER cells [7]; [11]): 14.2 ± 0.23 µM; IC50 (SCaBER cells [7]; [12]): 11.94 ± 0.09 µM
5 | (1E,3Z,6E)-1,7-bis(4-methoxy-3-hydroxyphenyl)-5-oxohepta-1,3,6-trien-3-yl difluoroborinate [Compound 12] | 9.63 ± 2.61 | 5.8 ± 0.77 | 2.28 ± 0.13 | 2.21 ± 0.17 | 2.32 ± 0.29 | 2.64 ± 0.54 | 2.48 ± 0.55 | 2.4 ± 0.45 | 3.26 ± 1.05 | 4.25 ± 1.94 | –
6 | (1E,4Z,6E)-5-hydroxy-1,7-bis (3-methoxy-4-hydroxyphenyl)-hepta-1,4,6-trien-3-one [Curcumin (11), reference compound] | 70.4 ± 12.5 | 45.3 ± 3.18 | 13.1 ± 0.68 | 12.6 ± 0.62 | 12.1 ± 0.16 | 13.3 ± 0.54 | 12.7 ± 3.03 | 12.9 ± 2.35 | 11.6 ± 0.83 | 11.3 ± 0.19 | IC50 [8]: 2.8 µM; cell population in G2/M (T24 cell line): 64%; curcumin decomposed ([9]; cell culture medium in the presence of FCS, within 1 h): less than 20%; curcumin decomposed ([9]; cell culture medium in the presence of FCS, within 8 h): < 50%; curcumin decomposed ([9]; serum-free medium, within 30 min): about 90%
7 | COCCOCCOCCOc1cc(/C=C/C(=O)/C=C(O)/C=C/c2ccc(OC)c(OCCOCCOCCOC)c2)ccc1OC [Compound 7, (1E,4Z,6E)-5-hydroxy-1,7-bis(4-methoxy-3-{2-[2-(2-methoxyethoxy)ethoxy]ethoxy}phenyl)-hepta-1,4,6-trien-3-one] | – | – | – | – | – | – | – | – | – | – | viability at 10 µM (5637 cells [5]; Homo sapiens, 5637, 10 µM, 24 h incubation, preliminary screen, read-out: cell viability): > 60%
8 | (1E,3Z,6E)-1,7-bis(3-methoxy-4-{2-[2-(2-methoxyethoxy)ethoxy]ethoxy}phenyl)-5-oxohepta-1,3,6-trien-3-yl difluoroborinate [Compound 4] | > 10 | > 10 | 4.18 ± 1.3 | 4.57 ± 2.07 | 2.58 ± 0.11 | 2.96 ± 0.23 | 3.31 ± 0.34 | 3.27 ± 0.45 | 2.42 ± 0.23 | 2.86 ± 0.62 | cell viability (MRC-5 cells [10]): 66%

Reference: publication PMC9867315, “Enhanced Cytotoxic Activity of PEGylated Curcumin Derivatives: Synthesis, Structure–Activity Evaluation, and Biological Activity” (International Journal of Molecular Sciences, 2023)
